Assay results: patent US20080166694A1, “Plant tissue packaging process” (priority 2007, published 2008)

Experiments:
bananas = assay: Addition of ozone to controlled-atmosphere and regular-atmosphere containers of bananas; settings: ozone added
Description: In another embodiment, a controlled-atmosphere shipping container is filled with bananas packaged in perforated bags, and ozone is added to the controlled atmosphere. If a non-ozonated controlled-atmosphere container is well sealed, ethylene will accumulate, offsetting the benefit of slowed respiration afforded by the controlled atmosphere.

Cavendish bananas = assay: Storage of harvested Cavendish bananas in banavac polyethylene bags in containers with or without ozone; settings: Container 7: 200 to 300 parts per billion ozone in surrounding atmosphere; polyethylene bags tied closed; regular atmosphere (20.8 percent oxygen); 56 days of storage; versus Container 8 without ozone
Description: Experimental conditions included loading harvested Cavendish bananas in polyethylene bags (known as “banavac” bags) into two containers, both having a regular atmosphere (containing 20.8 percent oxygen), with vents partially opened for the first four weeks and completely closed for the last four weeks of the experimental period. The experimental difference between the containers was the maintenance of 200 to 300 parts per billion of ozone in Container 7, and the absence of ozone from Container 8.
Container 8 in the experiment detailed in FIG. 3 was loaded with bananas in modified atmosphere packaging (here, polyethylene bags tied closed with a knot). The bananas were stored in the container without added ozone. At 56 days after harvest, all of the bananas were spoiled to the point of liquefaction.
Container 7 in the experiment detailed in FIG. 3 was loaded with bananas in modified atmosphere packaging (here also, polyethylene bags tied closed with a knot). According to an embodiment of the present invention, the bags of bananas in Container 7 were exposed to a surrounding atmosphere containing an ozone level of 200 to 300 parts per billion.

In the case of `O=[O+][O-]` [ozone], the “climacteric ripening of bananas” value (bananas) is reported as “delay climacteric ripening of bananas”, the “overall ethylene levels in containers” value (bananas) is reported as “reduce overall ethylene levels” and the “condition of the bananas after storage” value (Cavendish bananas) is reported as “markedly superior condition compared to that of the control bananas”.
